One block for each compound: values may come before it. Activity calls are given as the source filed them. No cut-off for these calls is given here.
Columns and labels:
[1] = system: MDA-MB-231; assay: Antiproliferative activity against human MDA-MB-231 harboring KRAS/BRAF/p53 gene mutation/amplification at 1 uM after 72 hrs by Ambit assay in presence of 10% serum; assay type: functional, cell-based; conditions: MDA-MB-231, 72 h
[2] = system: NCI-H1975; assay: Antiproliferative activity against human NCI-H1975 harboring PI3K/EGFR/p53 gene mutation/amplification at 1 uM after 72 hrs by Ambit assay in presence of 10% serum; assay type: functional, cell-based; conditions: NCI-H1975, 72 h
[3] = system: NCI-H2009; assay: Antiproliferative activity against human NCI-H2009 harboring KRAS/RB/p53 gene mutation/amplification at 1 uM after 72 hrs by Ambit assay in presence of 10% serum; assay type: functional, cell-based; conditions: NCI-H2009, 72 h
[4] = system: COLO-829; assay: Antiproliferative activity against human COLO829 harboring BRAF/PTEN gene mutation/amplification at 1 uM after 72 hrs by Ambit assay in presence of 10% serum; assay type: functional, cell-based; conditions: COLO-829, 72 h
[5] = system: UACC-893; assay: Antiproliferative activity against human UACC-893 cells harboring HER2/PI3K/p53 mutant gene at 1 uM after 72 hrs by Ambit assay in presence of 10% serum; assay type: functional, cell-based; conditions: UACC-893, 72 h
[6] = Antiproliferative activity against human U87MG harboring PTEN gene mutation/amplification at 1 uM after 72 hrs by Ambit assay in presence of 10% serum; assay type: functional, U-87MG ATCC; conditions: U-87 MG
[7] = system: A549; assay: Antiproliferative activity against human A549 cells harboring KRAS/LKB1 gene mutation/amplification at 1 uM after 72 hrs by Ambit assay in presence of 10% serum; assay type: functional, cell-based; conditions: A549, 72 h
[8] = system: BT-474; assay: Antiproliferative activity against human BT474 cells harboring HER2/PI3K/p53 mutant gene at 1 uM after 72 hrs by Ambit assay in presence of 10% serum; assay type: functional, cell-based; conditions: BT-474, 72 h
[9] = system: DU-4475; assay: Antiproliferative activity against human DU4475 harboring BRAF/APC/RB gene mutation/amplification at 1 uM after 72 hrs by Ambit assay in presence of 10% serum; assay type: functional, cell-based; conditions: DU-4475, 72 h
[10] = system: NCI-H82; assay: Antiproliferative activity against human NCI-H82 harboring CMYC/RB gene mutation/amplification at 1 uM after 72 hrs by Ambit assay in presence of 10% serum; assay type: functional, cell-based; conditions: NCI-H82, 72 h
[11] = system: SK-MEL-28; assay: Antiproliferative activity against human SK-MEL-28 harboring BRAF gene mutation/amplification at 1 uM after 72 hrs by Ambit assay in presence of 10% serum; assay type: functional, cell-based; conditions: SK-MEL-28, 72 h
[12] = system: NCI-H460; assay: Antiproliferative activity against human NCI-H460 harboring PI3K/KRAS/LKB1 gene mutation/amplification at 1 uM after 72 hrs by Ambit assay in presence of 10% serum; assay type: functional, cell-based; conditions: NCI-H460, 72 h
[13] = system: CAL-51; assay: Antiproliferative activity against human CAL51 harboring PI3K/PTEN gene mutation/amplification at 1 uM after 72 hrs by Ambit assay in presence of 10% serum; assay type: functional, cell-based; conditions: CAL-51, 72 h
[14] = target: TGF-beta receptor type-2 (Homo sapiens) (UniProt P37173); assay: Inhibition of TGFBR2 assessed as inhibition of TGFbeta induced SMAD phosphorylation at 10 uM relative to control
Chain of TGF-beta receptor type-2 (Homo sapiens) (P37173 whole entry): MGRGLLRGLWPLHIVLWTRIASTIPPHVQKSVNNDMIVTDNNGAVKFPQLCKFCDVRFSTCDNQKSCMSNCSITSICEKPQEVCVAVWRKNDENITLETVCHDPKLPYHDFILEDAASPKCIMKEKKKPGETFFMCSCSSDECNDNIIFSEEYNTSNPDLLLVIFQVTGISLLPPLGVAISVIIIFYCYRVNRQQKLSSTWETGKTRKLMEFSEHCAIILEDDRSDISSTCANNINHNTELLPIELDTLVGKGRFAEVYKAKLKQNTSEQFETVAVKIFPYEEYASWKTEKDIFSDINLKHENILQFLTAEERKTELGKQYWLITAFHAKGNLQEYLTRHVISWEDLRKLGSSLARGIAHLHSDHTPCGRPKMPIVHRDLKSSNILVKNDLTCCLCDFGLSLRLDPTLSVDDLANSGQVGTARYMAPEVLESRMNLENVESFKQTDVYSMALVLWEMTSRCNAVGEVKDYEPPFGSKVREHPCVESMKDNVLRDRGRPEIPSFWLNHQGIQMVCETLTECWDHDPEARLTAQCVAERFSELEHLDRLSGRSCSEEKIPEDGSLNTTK

[15] = system: Calu-6; assay: Antiproliferative activity against human Calu6 harboring KRAS gene mutation/amplification at 1 uM after 72 hrs by Ambit assay in presence of 10% serum; assay type: functional, cell-based; conditions: Calu-6, 72 h
[16] = system: MCF7; assay: Antiproliferative activity against human MCF7 harboring PI3K gene mutation/amplification at 1 uM after 72 hrs by Ambit assay in presence of 10% serum; assay type: functional, cell-based; conditions: MCF7, 72 h
[17] = target: TGF-beta receptor type-2 (Homo sapiens) (UniProt P37173); assay: Inhibition of TGFBR2 assessed as inhibition of TGFbeta induced SMAD phosphorylation at 1 uM relative to control
[18] = system: MDA-MB-468; assay: Antiproliferative activity against human MDA-MB-468 harboring PTEN/EGFR/p53 gene mutation/amplification at 1 uM after 72 hrs by Ambit assay in presence of 10% serum; assay type: functional, cell-based; conditions: MDA-MB-468, 72 h
[19] = system: HCC1954; assay: Antiproliferative activity against human HCC1954 harboring PI3K/p53 gene mutation/amplification at 1 uM after 72 hrs by Ambit assay in presence of 10% serum; assay type: functional, cell-based; conditions: HCC1954, 72 h
[20] = system: A-375; assay: Antiproliferative activity against human A375 cells harboring BRAF gene mutation/amplification at 1 uM after 72 hrs by Ambit assay in presence of 10% serum; assay type: functional, cell-based; conditions: A-375, 72 h
[21] = target: T1, Serine/threonine-protein kinase mTOR (Homo sapiens, UniProt P42345)
[22] = system: Rattus norvegicus; assay: AUC in Sprague-Dawley rat at 5 mg/kg, po; assay type: ADME, organism-based, Plasma; set-up: dose 5 mg/kg, route oral; conditions: in vivo
[23] = target: T2, Phosphatidylinositol 4,5-bisphosphate 3-kinase catalytic subunit delta isoform (Homo sapiens, UniProt O00329)
T2 sequence (O00329 whole entry): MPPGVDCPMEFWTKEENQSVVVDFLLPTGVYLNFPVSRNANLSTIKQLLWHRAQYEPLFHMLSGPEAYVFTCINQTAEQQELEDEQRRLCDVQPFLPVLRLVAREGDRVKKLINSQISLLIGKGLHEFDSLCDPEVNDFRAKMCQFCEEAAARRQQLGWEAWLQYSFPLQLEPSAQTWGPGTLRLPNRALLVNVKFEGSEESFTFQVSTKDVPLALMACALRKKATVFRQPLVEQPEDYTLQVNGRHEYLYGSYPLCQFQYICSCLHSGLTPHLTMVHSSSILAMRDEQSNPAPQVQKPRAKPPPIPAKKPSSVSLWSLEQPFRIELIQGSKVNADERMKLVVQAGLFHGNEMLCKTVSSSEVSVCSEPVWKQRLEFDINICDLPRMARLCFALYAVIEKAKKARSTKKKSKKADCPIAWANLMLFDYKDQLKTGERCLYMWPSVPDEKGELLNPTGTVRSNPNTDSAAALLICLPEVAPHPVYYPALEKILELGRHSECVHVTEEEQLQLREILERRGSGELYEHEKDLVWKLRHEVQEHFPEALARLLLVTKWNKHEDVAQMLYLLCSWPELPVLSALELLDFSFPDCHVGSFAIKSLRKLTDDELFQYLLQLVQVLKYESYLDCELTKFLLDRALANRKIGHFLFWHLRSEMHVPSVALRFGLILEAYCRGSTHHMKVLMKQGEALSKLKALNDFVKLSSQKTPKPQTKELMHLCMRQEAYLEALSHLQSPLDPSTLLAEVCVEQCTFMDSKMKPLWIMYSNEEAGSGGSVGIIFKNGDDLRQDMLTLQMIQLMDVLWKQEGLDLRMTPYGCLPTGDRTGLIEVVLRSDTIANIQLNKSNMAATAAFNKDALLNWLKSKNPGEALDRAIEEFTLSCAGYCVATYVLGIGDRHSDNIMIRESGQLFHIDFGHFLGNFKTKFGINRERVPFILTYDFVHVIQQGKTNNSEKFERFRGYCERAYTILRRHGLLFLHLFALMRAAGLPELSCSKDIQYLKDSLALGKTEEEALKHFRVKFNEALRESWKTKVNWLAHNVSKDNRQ

[24] = target: Phosphatidylinositol 4,5-bisphosphate 3-kinase catalytic subunit beta isoform (Homo sapiens, UniProt P42338)
Chain of Phosphatidylinositol 4,5-bisphosphate 3-kinase catalytic subunit beta isoform (P42338 whole entry, canonical isoform): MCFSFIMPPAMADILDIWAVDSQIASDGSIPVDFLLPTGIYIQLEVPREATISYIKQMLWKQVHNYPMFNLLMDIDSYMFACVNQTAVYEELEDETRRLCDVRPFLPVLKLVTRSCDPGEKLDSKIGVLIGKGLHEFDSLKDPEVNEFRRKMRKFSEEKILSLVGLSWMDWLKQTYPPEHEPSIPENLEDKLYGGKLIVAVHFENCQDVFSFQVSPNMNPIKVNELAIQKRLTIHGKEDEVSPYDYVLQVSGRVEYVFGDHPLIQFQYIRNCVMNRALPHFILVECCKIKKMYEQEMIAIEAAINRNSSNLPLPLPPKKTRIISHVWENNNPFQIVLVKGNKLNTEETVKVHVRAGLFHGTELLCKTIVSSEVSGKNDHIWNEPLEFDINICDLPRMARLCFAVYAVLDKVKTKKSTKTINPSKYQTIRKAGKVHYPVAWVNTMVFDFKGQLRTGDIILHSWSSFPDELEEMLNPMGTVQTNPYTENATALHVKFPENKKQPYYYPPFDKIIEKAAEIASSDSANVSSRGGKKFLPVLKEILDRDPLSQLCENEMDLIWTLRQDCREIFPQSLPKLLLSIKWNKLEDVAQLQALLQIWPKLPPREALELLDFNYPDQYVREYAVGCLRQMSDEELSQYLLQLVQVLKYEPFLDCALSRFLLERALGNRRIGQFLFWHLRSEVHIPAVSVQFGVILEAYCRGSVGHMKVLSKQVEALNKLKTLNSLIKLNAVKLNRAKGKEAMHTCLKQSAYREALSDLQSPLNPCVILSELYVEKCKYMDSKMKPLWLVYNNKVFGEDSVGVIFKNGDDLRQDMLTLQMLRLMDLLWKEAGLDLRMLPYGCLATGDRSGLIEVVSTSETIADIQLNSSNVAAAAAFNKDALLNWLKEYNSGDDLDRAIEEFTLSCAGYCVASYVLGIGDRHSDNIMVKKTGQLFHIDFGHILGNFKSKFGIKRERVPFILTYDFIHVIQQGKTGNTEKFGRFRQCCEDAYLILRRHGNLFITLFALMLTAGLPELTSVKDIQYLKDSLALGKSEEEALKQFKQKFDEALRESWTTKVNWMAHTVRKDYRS

[25] = target: Phosphatidylinositol 4,5-bisphosphate 3-kinase catalytic subunit alpha isoform (Homo sapiens, UniProt P42336)
Chain of Phosphatidylinositol 4,5-bisphosphate 3-kinase catalytic subunit alpha isoform (P42336 whole entry, canonical isoform): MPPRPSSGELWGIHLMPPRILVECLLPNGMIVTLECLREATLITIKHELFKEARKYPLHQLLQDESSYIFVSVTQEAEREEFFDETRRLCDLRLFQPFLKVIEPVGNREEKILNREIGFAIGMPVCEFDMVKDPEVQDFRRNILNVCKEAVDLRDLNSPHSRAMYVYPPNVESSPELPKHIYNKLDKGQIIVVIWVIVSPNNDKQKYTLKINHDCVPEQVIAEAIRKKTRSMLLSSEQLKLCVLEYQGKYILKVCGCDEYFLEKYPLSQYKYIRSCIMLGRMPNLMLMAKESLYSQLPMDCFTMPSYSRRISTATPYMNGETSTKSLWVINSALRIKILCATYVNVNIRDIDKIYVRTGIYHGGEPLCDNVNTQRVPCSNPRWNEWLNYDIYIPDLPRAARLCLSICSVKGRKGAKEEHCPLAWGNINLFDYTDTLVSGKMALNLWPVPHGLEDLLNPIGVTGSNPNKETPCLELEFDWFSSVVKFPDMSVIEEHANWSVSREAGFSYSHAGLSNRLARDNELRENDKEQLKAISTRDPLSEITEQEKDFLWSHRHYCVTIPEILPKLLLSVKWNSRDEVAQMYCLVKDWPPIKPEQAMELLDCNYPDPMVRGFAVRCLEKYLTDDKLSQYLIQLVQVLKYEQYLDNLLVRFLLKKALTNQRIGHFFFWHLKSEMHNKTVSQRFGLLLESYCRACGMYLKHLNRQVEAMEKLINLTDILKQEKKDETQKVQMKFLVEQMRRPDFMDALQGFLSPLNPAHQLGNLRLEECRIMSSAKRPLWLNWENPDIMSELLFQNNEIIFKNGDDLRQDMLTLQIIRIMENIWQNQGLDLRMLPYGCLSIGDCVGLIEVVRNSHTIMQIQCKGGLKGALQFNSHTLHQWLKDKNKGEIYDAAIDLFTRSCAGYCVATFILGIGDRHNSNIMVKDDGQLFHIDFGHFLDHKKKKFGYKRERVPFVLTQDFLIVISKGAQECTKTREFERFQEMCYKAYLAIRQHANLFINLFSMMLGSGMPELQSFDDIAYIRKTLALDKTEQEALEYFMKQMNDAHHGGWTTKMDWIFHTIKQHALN

[26] = target: Phosphatidylinositol 4,5-bisphosphate 3-kinase catalytic subunit gamma isoform (Homo sapiens, UniProt P48736)
Chain of Phosphatidylinositol 4,5-bisphosphate 3-kinase catalytic subunit gamma isoform (P48736 whole entry, canonical isoform): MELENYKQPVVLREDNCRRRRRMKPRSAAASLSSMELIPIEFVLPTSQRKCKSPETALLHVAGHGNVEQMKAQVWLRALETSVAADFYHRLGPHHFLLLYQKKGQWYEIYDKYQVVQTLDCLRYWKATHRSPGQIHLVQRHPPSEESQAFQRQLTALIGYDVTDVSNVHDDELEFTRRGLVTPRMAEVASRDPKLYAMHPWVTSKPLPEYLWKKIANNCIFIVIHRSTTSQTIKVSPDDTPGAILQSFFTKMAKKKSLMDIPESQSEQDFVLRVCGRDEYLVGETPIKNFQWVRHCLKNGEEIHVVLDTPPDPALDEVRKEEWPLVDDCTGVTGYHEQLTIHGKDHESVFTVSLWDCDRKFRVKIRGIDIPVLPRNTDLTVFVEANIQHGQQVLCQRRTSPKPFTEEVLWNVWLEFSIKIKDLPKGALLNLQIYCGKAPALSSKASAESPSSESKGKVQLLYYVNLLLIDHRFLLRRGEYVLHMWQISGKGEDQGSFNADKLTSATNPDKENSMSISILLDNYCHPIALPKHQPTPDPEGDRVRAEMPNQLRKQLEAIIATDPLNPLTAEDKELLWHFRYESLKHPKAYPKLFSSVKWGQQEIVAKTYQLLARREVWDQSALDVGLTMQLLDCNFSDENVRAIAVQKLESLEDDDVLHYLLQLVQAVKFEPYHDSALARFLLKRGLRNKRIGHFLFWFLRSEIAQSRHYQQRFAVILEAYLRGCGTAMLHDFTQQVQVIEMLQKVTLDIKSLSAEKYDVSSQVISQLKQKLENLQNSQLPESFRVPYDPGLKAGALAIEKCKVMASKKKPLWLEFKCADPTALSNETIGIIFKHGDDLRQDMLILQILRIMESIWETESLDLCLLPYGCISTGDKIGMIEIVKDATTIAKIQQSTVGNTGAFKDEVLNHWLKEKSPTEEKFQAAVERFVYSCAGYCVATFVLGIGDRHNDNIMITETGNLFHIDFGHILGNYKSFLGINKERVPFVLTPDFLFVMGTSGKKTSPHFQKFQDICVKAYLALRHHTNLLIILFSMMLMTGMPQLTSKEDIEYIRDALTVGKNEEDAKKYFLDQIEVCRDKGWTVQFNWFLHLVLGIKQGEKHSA

[27] = Half life in Sprague-Dawley rat at 5 mg/kg, po; assay type: ADME, organism-based; set-up: dose 5 mg/kg, route oral; conditions: in vivo
[28] = target: T1, Serine/threonine-protein kinase mTOR; remark: listed apart in the source
Description: Inhibition of mTOR in human U-87 cells assessed as inhibition of phosphorylation of AKT at S473

[29] = target: T1, Serine/threonine-protein kinase mTOR; remark: listed apart in the source

IC50 [1]: 270 nM
IC50 [2]: 600 nM
IC50 [3]: 420 nM
IC50 [4]: 340 nM
IC50 [7]: 430 nM
IC50 [8]: 200 nM
IC50 [10]: 430 nM
IC50 [11]: 470 nM
IC50 [12]: 460 nM
inhibition [14]: inactive
IC50 [15]: 590 nM
IC50 [16]: 540 nM
inhibition [17]: 17%
IC50 [18]: 690 nM
IC50 [19]: 220 nM
IC50 [20]: 380 nM
SMILES: Cc1nc(NCC#N)nc(-n2c(Nc3cc[nH]n3)nc3ccccc32)n1
IC50 [5]: 140 nM
IC50 [6]: 350 nM
IC50 [9]: 530 nM
IC50 [13]: 320 nM

IC50 [21]: 1300 nM
AUC [22]: 1020 nM
IC50 [23]: 5800 nM
IC50 [24]: 15400 nM
IC50 [25]: 7700 nM
IC50 [26]: 6200 nM
half-life [27]: 42 min
IC50 [28]: 82 nM
IC50 [29]: 60 nM
SMILES: Cc1nc(NCCC#N)nc(-n2c(Nc3cc[nH]n3)nc3ccccc32)n1
